Results from the supplement of paper PMC10949913.

Tests used:
Test in all cases: area under concentration-response curve (viability) (AUC (a.u.)); higher = less active
Settings in all cases: 48 h
CU-ACC1 = test system: CU-ACC1
Method in brief: (§1)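 Library compounds were dispensed at 11 concentrations (23 nL each) onto three adrenocortical carcinoma cell lines in 1,536-well plates. Luminescence was recorded after 48 h using CellTiter-Glo, and signals were normalised per plate to vehicle and empty-well controls. Fitted concentration-response curves of inhibitory or non-responding classes only supplied the AC50 and area under the curve.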

CU-ACC2 = test system: CU-ACC2
Method in brief: as §1

NCI-H295R = test system: NCI-H295R
Method in brief: as §1

Compound	area under concentration-response curve (CU-ACC1)	area under concentration-response curve (CU-ACC2)	area under concentration-response curve (NCI-H295R)
NC(=O)c1ccc(-c2nc(-c3ccc4c(c3)OCO4)c(-c3ccccn3)[nH]2)cc1	286	633	509
Cc1ccc(CN2CCNCC2)cc1NC(=O)CNc1ccc(F)c(F)c1	531	635	596
O=C(O)c1ccc(CN2CCC(CN[C@@H]3C[C@H]3c3ccccc3)CC2)cc1	465	540	490
CC(C)=CCC[C@](C)(O[C@@H]1O[C@H](CO[C@@H]2O[C@H](CO)[C@@H](O)[C@H](O)[C@H]2O)[C@@H](O)[C@H](O)[C@H]1O)[C@H]1CC[C@]2(C)[C@@H]1[C@H](O)C[C@@H]1[C@@]3(C)CC[C@H](O[C@@H]4O[C@H](CO)[C@@H](O)[C@H](O)[C@H]4O[C@@H]4O[C@H](CO)[C@@H](O)[C@H](O)[C@H]4O)C(C)(C)[C@@H]3CC[C@]12C	533	637	591
C/C=C/C[C@@H](C)C(=O)[C@H]1C(=O)N[C@@H](C(C)C)C(=O)N(C)CC(=O)N(C)[C@@H](CC(C)C)C(=O)N[C@@H](C(C)C)C(=O)N(C)[C@@H](CC(C)C)C(=O)N[C@@H](C)C(=O)N[C@H](C)C(=O)N(C)[C@@H](CC(C)C)C(=O)N(C)[C@@H](CC(C)C)C(=O)N(C)[C@@H](C(C)C)C(=O)N1C	534	633	524
Cc1cn[nH]c1	492	575	524
CCCOc1ccc2[nH]c(NC(=O)OC)nc2c1	499	568	480
CC(C)C[C@H](CC(=O)O)C(=O)N[C@@H](Cc1c[nH]c2ccccc12)C(=O)N[C@@H](C)c1ccccc1	433	622	577
OC[C@H]1O[C@H]([C@H](O)[C@@H]1O)N2/C=C\C=N/C2=O	525	609	583
Nc1nc(N)nc(-c2cc(Cl)ccc2Cl)n1	409	441	410
Cc1ccc(NC(=O)Nc2nnc(Sc3ncnc4cc(OCCCN5CCOCC5)ccc34)s2)cc1	521	583	511
Cc1oncc1C(=O)Nc1ccc(C(F)(F)F)cc1	421	498	481
COc1cc(NC(=O)c2ccc(-c3ccc(Cl)cc3)o2)cc(OC)c1	469	562	536
CN\1N(C(=O)\C(=C1C)C(=O)NC2=CC=C(OC3=CC=NC4=C3C(=C[NH]4)C5=CC=CC=C5)C(=C2)F)C6=CC=C(F)C=C6	522	525	535
CN(CC1=CC2=C(N\C(=N/C2=O)C)C=C1)C3=CC=C(S3)C(=O)N[C@@H](CCC(O)=O)C(O)=O	503	602	532
CC(C)(C)C#Cc1cc(N(C(=O)[C@H]2CC[C@H](C)CC2)[C@H]2CC[C@@H](O)CC2)c(C(=O)O)s1	497	478	497
Cc1ccc(-n2c(C)cc(-c3nnc4n3CCCCC4)c2C)cc1	575	647	595
COc1ccc(CC2c3cc(OC)c(OC)cc3CC[N+]2(C)CCC(=O)OCCCCCOC(=O)CC[N+]2(C)CCc3cc(OC)c(OC)cc3C2Cc2ccc(OC)c(OC)c2)cc1OC (centres undefined)	449	494	474
Cn1c(/C=C/CO)c(CO)c2c1C(=O)C=C(N1CC1)C2=O	461	580	514
O=C(O)Cn1nnc(-c2cc(N3CCC(Oc4cc(F)ccc4Br)CC3)no2)n1	491	594	515
CNC(=O)[C@H](Cc1c[nH]c2ccccc12)NC(=O)[C@@H](CC(=O)NO)CC(C)C	473	492	460
Cc1n[nH]c(C)c1Cc1sc2c(c1C(=O)N1C[C@H](O)CO1)c(=O)n(C)c(=O)n2CC(C)C	379	597	554

Compound	area under concentration-response curve (CU-ACC1)	area under concentration-response curve (CU-ACC2)	area under concentration-response curve (NCI-H295R)
CC1=C(/C=C/C(C)=C/C=C/C(C)=C/C=C/C=C(C)/C=C/C=C(C)/C=C/C2=C(C)CCCC2(C)C)C(C)(C)CCC1	544	617	574
COc1ccc(C(=O)N2CCN(C(=O)/C=C/c3ccc(Br)cc3)CC2)cc1	499	638	536
N[C@@H]1CONC1=O	533	497	559
Cc1noc(-c2ccc(CSCCC(=O)O)cc2)c1NC(=O)OC(C)c1ccccc1Cl (centres undefined)	469	557	505
CC1(C)[C@@H](O[C@H]2O[C@H](C(=O)O)[C@@H](O)[C@H](O)[C@H]2O[C@@H]2O[C@H](C(=O)O)[C@@H](O)[C@H](O)[C@H]2O)CC[C@]2(C)[C@H]3C(=O)C=C4[C@@H]5C[C@@](C)(C(=O)O)CC[C@]5(C)CC[C@@]4(C)[C@]3(C)CC[C@@H]12	541	522	567
COC1=CC=C2[C@H]3CC[C@]4(C)[C@H](CC[C@H]4[C@@H]3CCC2=C1)NCCCCCCN5C(=O)\C=C/C5=O	496	460	517
C[C@@H]1CC(=O)Nc2cccc(-c3ccc4c(c3)c(-c3cnn(C)c3)nn4C)c2N1	517	602	550
CCOC(=O)[C@H](CCc1ccccc1)N[C@@H](C)C(=O)N1[C@H](C(=O)O)C[C@@H]2CCC[C@@H]21	545	649	595
O=P(O)(O)C(O)(Cc1cccnc1)P(=O)(O)[O][Na] (centres undefined)	508	573	533
Cc1c(-c2ccc(-c3ccccc3F)cc2)nc2ccc(F)cc2c1C(=O)O	595	620	521
N=C1S/C(=C\c2ccc(-c3ccc4c(c3)C(=O)NC4=O)o2)C(=O)N1c1ccc(Br)cc1	563	675	618
CC1=CC(=C(O)C(=C1C\C2=N\CCN2)C)C(C)(C)C	515	579	496
CN(CCO)C1CCN(c2ccc(Nc3ncc4c5ccnc(F)c5n(C5CCCC5)c4n3)nc2)CC1	467	658	579
Nc1cccc(-c2cc3c(Oc4cccc(O)c4)ncnc3[nH]2)c1	524	534	530
ClC1=CC=C2OC3=C(\N=C(NC3=O)\[C@@H]4CCCN4)C2=C1	410	601	534
O=C(O)C(=O)c1cn(Cc2ccccc2)c2ccc(-c3ccc(OC(F)(F)F)cc3)cc12	474	489	489
CC1COC2=C3N1\C=C(C(O)=O)/C(=O)C3=CC(=C2N4CCN(C)CC4)F (centres undefined)	474	537	517
CCCC(CCC)C(=O)NC/1=N/C(=O)N(/C=C1)[C@@H]2O[C@H](CO)[C@@H](O)C2(F)F	496	481	543
CC(C)[C@H]1C(=O)N[C@H](CO)Cc2c[nH]c3cccc(c23)N1C	384	539	575
CC1=C(C)C\2=C(S1)[N]3C(=NN=C3C(CC(N)=O)\N=C2C4=CC=C(Cl)C=C4)C (centres undefined)	439	480	431
CN1CC[C@@H](NC(=O)Nc2ccc(C#N)cc2)C[C@@H]1c1nc2ccccc2[nH]1	485	595	555
